The values that follow come from patent US20040127547A1, “Prodigiosin composition for the treatment of rheumatic arthritis” (priority 2001, published 2004).

The subject of one data set is NOD mouse. Conditions: cited from earlier work.
The next data set concerns T-cell. Conditions: cited from earlier work.
The subject of data set [1] is DBA/1 mouse with collagen-induced rheumatic arthritis. As to the kind of experiment: Crisis level (clinical index) of collagen-induced rheumatic arthritis. The format is in vivo. The procedure: 6 week-old male DBA/1 mouse supplied from Charles River Japan (Japan) was adapted until 8 to 12 week-old and then, used in the experiment. On the first day of the experiment, the mouse was administered subcutaneously with 100 μl of collagen/complete freund's adjuvant at its tail. The collagen/complete freund's adjuvant was prepared by mixing a solution of collagen (bovine type II) dissolved in 0.05 M acetic acid at a concentration of 2 mg/ml with complete freund's adjuvant at the same concentration. At 21st day of the experiment, 100 μg of collagen was intraperitoneally administered and at 28th day of the experiment, 40 μg of lipopolysaccharide was intraperitoneally administered to promote arthritis crisis. The crisis level of rheumatic arthritis was examined with the naked eye and expressed as a clinical index. That is, 0=none, 0.5=flushed and swollen toe, 1=mild crisis, 1.5=moderate crisis, 2 or more=severe crisis and joint stiffness. Four legs of the DBA/1 mouse were examined for their levels of arthritis crisis.
In order to confirm the therapeutic effect of prodigiosin on rheumatic arthritis, three types of experiments were performed according to the following strategies: (1) 10 mg/kg of prodigiosin was intraperitoneally administered every other day from the 29th day of the experiment, when rheumatic arthritis lesion was developed, to 65th day, the last day of the experiment; (2) 10 mg/kg of prodigiosin was intraperitoneally administered every other day from the 29th day of the experiment, when rheumatic arthritis lesion was developed, to 36th day of the experiment; and (3) 10 mg/kg of prodigiosin was intraperitoneally administered every other day from the 36th day of the experiment, when rheumatic arthritis was in progress, to 65th day, the last day of the experiment.
(§1) In this example, the DBA/1 mouse with collagen-induced rheumatic arthritis, prepared in Example 1, were administered intraperitoneally with 10 mg/kg of prodigiosin every other day from the 29th day of the experiment to 65th day of the experiment. The DBA/11 mouse treated with prodigiosin according to the above method and the DBA/1 mouse non-treated with prodigiosin were examined for their crisis level of rheumatic arthritis according to time.
as §1, with “order to investigate the change after suspension of administration of prodigiosin and the influence of prodigiosin on early rheumatic arthritis,” for “this example,”, “36th” for “65th”, “DBA/1” for “DBA/11”, “time. […] Accordingly, it is noted that prodigiosin has effects preventing and treating rheumatic arthritis.” for “time.”
In order to investigate the influence of prodigiosin on rheumatic arthritis which had developed and progressed, the DBA/1 mouse with collagen-induced rheumatic arthritis, prepared in Example 1, were administered intraperitoneally with 10 mg/kg of prodigiosin every other day from the 36th day to 65th day after starting the experiment. The DBA/1 mouse treated with prodigiosin according to the above method and the DBA/1 mouse non-treated with prodigiosin were examined for their crisis level of rheumatic arthritis according to time.

For data set [2] the test system is unchanged. As to the kind of experiment: Laboratory test: hematoxylin and eosin staining of interphalangeal and knee joints. The format is in vivo. Particulars: H&E staining. The source says: The ininter phalangeal joints and knee joints from DBA/1 mouse of the prodigiosin-treated group and the control group, not treated with prodigiosin, in Example 3 were subjected to a laboratory test. The ininter phalangeal joints and knee joints were removed on the last day of the administration and stained with hematoxylin and eosin.

For another data set, the system named is B-cell. Particulars: cited from earlier work.
For data set [3], the system named is cytokines TNF-α, IL-1β, IL-6, IL-12, IL-2, IFN-γ, IL4, IL-10. As to the kind of experiment: Cytokine expression levels in spleen cells by RT-PCR. In kind it is in vivo. Particulars: spleen cells of treated DBA/1 mouse, 10 mg/kg i.p. every other day. The protocol: The spleen cells were removed from DBA/1 mouse of the prodigiosin-treated group and the control group, not treated with prodigiosin, in Example 3 and subjected to RNA separation. Then, the expression levels of cytokine were measured using RT-PCR (Reverse transcriptase polymerase chain reaction). The expression levels of inflammatory cytokines such as TNF-α, IL-1β, IL-6, IL-12; cytokines derived from Th1 cells such as IL-2, IFN-γ; cytokines derived from Th2 cells such as IL4, IL-10 were measured.

Data set [4] concerns transplantation rejection. Conditions: in vivo; cited from earlier work.
In a further data set the test system is animal. Particulars: 10 to 30 mg/kg for 16 weeks; cited from earlier work.

Where only a bound is given, the exact number is not on record here.

For the compound `CCCCCC1=C/C(=C/c2[nH]c(-c3ccc[nH]3)cc2OC)N=C1C` [prodigiosin], the “diabetes crisis of the NOD mouse” value in the data set with NOD mouse (10 mg/kg intraperitoneally every other day) was “completely suppressed”. The “insulitis (lymphocyte infiltration into pancreatic islet)” value in the data set on NOD mouse (NOD mouse) is on record as “suppressed insulitis”. Also, the “proliferation and activity of T-cell” value in the data set on T-cell is recorded as “strongly inhibit”. Further, the “toxicity at a concentration where immunosuppression occurs” value in the data set with T-cell (concentration where immunosuppression occurs) was “not showing toxicity”. Besides, the “crisis level of rheumatic arthritis after suspension of administration” value in data set [1] (10 mg/kg i.p. every other day from 29th to 36th day, after suspension of administration) is “about 1”. Also, the “crisis level of rheumatic arthritis by the 38th day” value in data set [1] (10 mg/kg i.p. every other day from 29th to 36th day, by the 38th day) is at most 0.5. In addition, the “crisis level of rheumatic arthritis” value in data set [1] (10 mg/kg i.p. every other day from 29th to 65th day, clinical index 0 to 8 (four legs)) is at most 0.5. Also, the “crisis level of rheumatic arthritis at 36 day” value in data set [1] (10 mg/kg i.p. every other day from 36th to 65th day, at 36 day (start of administration)) is listed as “about 2”. The “change of crisis level after 36 day” value in data set [1] (10 mg/kg i.p. every other day from 36th to 65th day, progressive arthritis) is recorded as “no more increase”. In addition, the “histology of interphalangeal joint and knee joint” value in data set [2] (groups of Example 3 (10 mg/kg i.p., 29th to 36th day)) was “Normal tissues”. In addition, in data set [2] (groups of Example 3), the “joint destruction in the knee joint” value is “not observed” and the “lymphocyte infiltration into the interphalangeal joint” value is “not observed”. In addition, the “antibody production and proliferation of B-cell” value in the data set with B-cell is recorded as “does not inhibit”. In addition, the “expression levels of cytokines (TNF-α, IL-1β, IL-6, IL-12, IL-2, IFN-γ, IL4, IL-10)” value in data set [3] is recorded as “reduced the expression levels of all kinds of cytokines”. Also, in data set [4], the “effect on transplantation rejection” value was “therapeutic effects”. Moreover, the toxicity in animal entry in the data set on animal is “does not show toxicity”.
